Data on 28 compounds can be found in patent US20170247336A1 (MERCK SHARP & DOHME CORP., priority 2014, published 2017).

Structures can show the parent of a compound that is named as a salt.

The assay deals with T1, human HIF-PHD2 (Homo sapiens, UniProt Q9GZT9).
T1 construct: FLAG-tagged full length PHD2 expressed in and purified from baculovirus-infected Sf9 cells; FLAG; made in house; host or cells: baculovirus-infected Sf9 cells
Nature of the assay: HIF-PHD2 inhibition: hydroxylation of HIF-1α peptide, time resolved fluorescence. The class given is biochemical. The following applies: FLAG-tagged full length PHD2; 0.2 μM 2-oxoglutarate, 0.5 μM HIF-1α peptide. The method, then: To each well of a 384-well plate, 1 μL of test compounds in DMSO (final concentration ranging from 0.3 nM to 10 μM) were added into 20 μl of assay buffer (50 mM Tris pH 7.4/0.01% Tween-20/0.1 mg/ml bovine serum albumin/10 μM ferrous sulfate/1 mM sodium ascorbate/20 μg/ml catalase) containing 0.15 μg/ml FLAG-tagged full length PHD2 expressed in and purified from baculovirus-infected Sf9 cells. After a 5 min preincubation at room temperature, the enzymatic reactions were initiated by the addition of 4 μL of substrates {final concentrations of 0.2 μM 2-oxoglutarate and 0.5 μM HIF-1α peptide biotinyl-DLDLEMLAPYIPMDDDFQL (SEQ ID NO: 1)}. After incubation for 45 minutes at room temperature, the reactions were terminated by the addition of a 25 μL quench/detection mix to a final concentration of 1 mM ortho-phenanthroline, 0.1 mM EDTA, 0.5 nM anti-(His)6 LANCE reagent (Perkin-Elmer Life Sciences), 100 nM AF647-labeled streptavidin (Invitrogen), and 2 μg/ml (His)6-VHL complex {S. Tan Protein Expr. Purif. 21, 224-234 (2001)} and the signals were developed for 30 minutes at room temperature. The ratio of time resolved fluorescence signals at 665 and 620 nm was determined, and percent inhibition was calculated relative to the high control samples (DMSO treated) run in parallel, after background subtraction.

T1 sequence (Q9GZT9 whole entry): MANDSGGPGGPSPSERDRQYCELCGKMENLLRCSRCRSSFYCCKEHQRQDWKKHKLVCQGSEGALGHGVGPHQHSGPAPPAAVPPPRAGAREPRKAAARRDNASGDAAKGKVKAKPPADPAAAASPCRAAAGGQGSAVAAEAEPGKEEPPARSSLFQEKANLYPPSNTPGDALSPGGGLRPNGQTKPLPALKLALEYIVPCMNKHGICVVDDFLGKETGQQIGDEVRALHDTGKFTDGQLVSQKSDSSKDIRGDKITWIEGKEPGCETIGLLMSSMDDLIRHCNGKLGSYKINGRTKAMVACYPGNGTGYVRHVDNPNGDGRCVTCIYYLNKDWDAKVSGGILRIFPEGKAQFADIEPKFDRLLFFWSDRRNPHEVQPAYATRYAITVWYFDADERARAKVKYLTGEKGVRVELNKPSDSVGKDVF

As a reminder, the IC50 is the concentration that inhibits the measured activity by half. For `CC(CNC(=O)c1ncc(C(=O)NC2(c3ccc(-c4ccc(F)cc4)cc3)CC2)c(O)n1)C(=O)O` (single isomer, unassigned) [Example 32, (R) or (S)-3-(5-((1-(4′-fluoro-[1,1′-biphenyl]-4-yl)cyclopropyl)carbamoyl)-4-hydroxypyrimidine-2-carboxamido)-2-methylpropanoic acid], the concentration for half-maximal inhibition (IC50) turned out to be 12 nM.

Regarding `COc1ccc(-c2ccc(C3(NC(=O)c4cnc(C(=O)NCC(C)C(=O)O)nc4O)CC3)cc2)cn1` (single isomer, unassigned) [Example 33, (R) or (S)-2-((2-carboxypropyl)carbamoyl)-6-hydroxy-5-((1-(4-(6-methoxypyridin-3-yl)phenyl)cyclopropyl)carbamoyl)pyrimidin-1-ium chloride], the 50% inhibitory concentration (IC50) worked out at 4.3 nM.

Consider `COc1ccc([C@@H](NC(=O)c2cnc(C(=O)NC[C@@H](O)C(=O)O)nc2O)c2ccccc2)cc1` [Example 10, (R)-2-Hydroxy-3-(4-hydroxy-5-(((S)-(4-methoxyphenyl) (phenyl)methyl)carbamoyl)pyrimidine-2-carboxamido)propanoic acid], for which the midpoint of inhibition, the IC50, lay at 6.8 nM.

The compound `O=C(O)CCNC(=O)c1ncc(C(=O)NC(c2ccc(Cl)cc2)c2ccc(C(F)(F)F)cc2)c(O)n1` (stereo not shown) [Example 40, 3-(5-(((4-chlorophenyl)(4-(trifluoromethyl)phenyl)methyl)carbamoyl)-4-hydroxypyrimidine-2-carboxamido)propanoic acid] yielded a half-inhibitory concentration (IC50) of 0.9 nM.

As to `COc1ccc([C@@H](NC(=O)c2cnc(C(=O)NCCC(=O)O)nc2O)c2ccc(Cl)cc2)cc1` [Example 35, (R)-3-(5-(((4-chlorophenyl)(4-methoxyphenyl)methyl)carbamoyl)-4-hydroxypyrimidine-2-carboxamido)propanoic acid], the half-maximal inhibitory concentration (IC50) was found to be 0.9 nM.

In the case of `COc1ccc([C@H](NC(=O)c2cnc(C(=O)NC[C@@H](O)C(=O)O)nc2O)c2ccccc2)cc1` [Example 12, (R)-2-hydroxy-3-(4-hydroxy-5-(((R)-(4-methoxyphenyl)(phenyl)methyl)carbamoyl)pyrimidine-2-carboxamido)propanoic acid], the IC50 came out at 8.7 nM.

As for `O=C(O)CCNC(=O)c1ncc(C(=O)NC(c2ccc(Cl)cc2)c2ccc(Cl)cc2)c(O)n1` [Example 42, 3-(5-((bis(4-chlorophenyl)methyl)carbamoyl)-4-hydroxypyrimidine-2-carboxamido)propanoic acid], the IC50 stood at 0.5 nM.

For `COc1ccc(C(NC(=O)c2cnc(C(=O)NCC(C)C(=O)O)nc2O)c2ccc(OC)cc2)cc1` (single isomer, unassigned) [Example 18, (R) or (S)-3-(5-((bis(4-methoxyphenyl)methyl)carbamoyl)-4-hydroxypyrimidine-2-carboxamido)-2-methylpropanoic acid], inhibition was half-maximal at 15 nM (IC50).

The compound `N#Cc1ccc(C(NC(=O)c2cnc(C(=O)NC[C@@H](O)C(=O)O)nc2O)c2ccccc2)cc1` (single isomer, unassigned) [Example 9] displayed an IC50 of 27.2 nM.

`O=C(NCC(O)C(=O)O)c1ncc(C(=O)NC(c2ccccc2)c2ccccc2)c(O)n1` (stereo not shown) [Example 5, 3-(5-(benzhydrylcarbamoyl)-4-hydroxypyrimidine-2-carboxamido)-2-hydroxypropanoic acid] yielded a half-inhibitory concentration (IC50) of 0.9 nM.

Consider `CC(CNC(=O)c1ncc(C(=O)NC(C)(C)c2ccc(-c3cc[nH]n3)cc2)c(O)n1)C(=O)O` (single isomer, unassigned) [Example 27, (R) or (S)-5-((2-(4-(1H-pyrazol-3-yl)phenyl)propan-2-yl)carbamoyl)-2-((2-carboxypropyl)carbamoyl)-6-hydroxypyrimidin-1-ium formate], for which it took 5.8 nM to reach half-maximal inhibition (IC50).

On to `CC(C)(NC(=O)c1cnc(C(=O)NC[C@@H](O)C(=O)O)nc1O)c1ccc(C(F)(F)F)cc1` [Example 11, (R)-2-hydroxy-3-(4-hydroxy-5-((2-(4-(trifluoromethyl)phenyl)propan-2-yl)carbamoyl)pyrimidine-2-carboxamido)propanoic acid], for which 1.5 nM corresponded to half-maximal inhibition (IC50).

The compound `O=C(O)CCNC(=O)c1ncc(C(=O)NC(c2ccc(Br)cc2)C(F)(F)F)c(O)n1` (stereo not shown) [Example 47, 3-(5-((1-(4-bromophenyl)-2,2,2-trifluoroethyl)carbamoyl)-4-hydroxypyrimidine-2-carboxamido)propanoic acid] registered a concentration for half-maximal inhibition (IC50) of 1.1 nM.

For the compound `COc1ccc(-c2ccc(C(C)(C)NC(=O)c3cnc(C(=O)NCC(C)C(=O)O)nc3O)cc2)cn1` (single isomer, unassigned) [Example 26, (R) or (S)-2-((2-carboxypropyl)carbamoyl)-6-hydroxy-5-((2-(4-(6-methoxypyridin-3-yl)phenyl)propan-2-yl)carbamoyl)pyrimidin-1-ium chloride], the midpoint of inhibition, the IC50, lay at 3.4 nM.

On to `CC(NC(=O)c1cnc(C(=O)NCCC(=O)O)nc1O)c1ccc(Oc2ccccc2)cc1` (stereo not shown) [Example 46, 3-(4-hydroxy-5-((1-(4-phenoxyphenyl)ethyl)carbamoyl)pyrimidine-2-carboxamido)propanoic acid], for which half-maximal inhibition (IC50) was put at 1 nM.

`CC(O)(CNC(=O)c1ncc(C(=O)NC(c2ccccc2)c2ccccc2)c(O)n1)C(=O)O` (stereo not shown) [Example 3, 3-(5-(Benzhydrylcarbamoyl)-4-hydroxypyrimidine-2-carboxamido)-2-hydroxy-2-methylpropanoic acid]: half-maximal inhibition (IC50) required 4.1 nM.

As for `CC(CNC(=O)c1ncc(C(=O)NC2(c3ccc(-c4ccc(Cl)cc4)cc3)CC2)c(O)n1)C(=O)O` (single isomer, unassigned) [Example 30, (R) or (S)-3-(5-((1-(4′-chloro-[1,1′-biphenyl]-4-yl)cyclopropyl)carbamoyl)-4-hydroxypyrimidine-2-carboxamido)-2-methylpropanoic acid], inhibition was half-maximal at 13 nM (IC50).

`Cc1cc(C#N)ccc1-c1ccc(C(C)(C)NC(=O)c2cnc(C(=O)NCC(C)C(=O)O)nc2O)cc1` (single isomer, unassigned) [Example 23, (R) or (S)-3-(5-((2-(4′-cyano-2′-methyl-[1,1′-biphenyl]-4-yl)propan-2-yl)carbamoyl)-4-hydroxypyrimidine-2-carboxamido)-2-methylpropanoic acid] yielded an IC50 of 12 nM.

Turning to `CC(CNC(=O)c1ncc(C(=O)NC(C)(C)c2ccc(-c3ccc(C(F)(F)F)cc3)cc2)c(O)n1)C(=O)O` (single isomer, unassigned) [Example 20, (R) or (S)-3-(4-hydroxy-5-((2-(4′-(trifluoromethyl)-[1,1′-biphenyl]-4-yl)propan-2-yl)carbamoyl)pyrimidine-2-carboxamido)-2-methylpropanoic acid], the half-maximal inhibitory concentration (IC50) was 8.1 nM.

For `CC(CNC(=O)c1ncc(C(=O)NC(c2ccc(Cl)cc2)c2ccc(Cl)cc2)c(O)n1)C(=O)O` (stereo not shown) [Example 13], the IC50 worked out at 4.88 nM.

`CC(CNC(=O)c1ncc(C(=O)NC2(c3ccc(-c4cccc5cnccc45)cc3)CC2)c(O)n1)C(=O)O` (single isomer, unassigned) [Example 31, (R) or (S)-2-((2-carboxypropyl)carbamoyl)-6-hydroxy-5-((1-(4-(isoquinolin-5-yl)phenyl)cyclopropyl)carbamoyl)pyrimidin-1-ium formate] showed an IC50 of 10 nM.

In the case of `COc1ccc(C(NC(=O)c2cnc(C(=O)NCCC(=O)O)nc2O)c2ccccc2)cc1` (stereo not shown) [Example 38], the 50% inhibitory concentration (IC50) was found to be 0.9 nM.

Compound `COc1ccc(C(NC(=O)c2cnc(C(=O)NCCC(=O)O)nc2O)c2ccc(OC)cc2)cc1` [Example 48, 3-(5-((bis(4-methoxyphenyl)methyl)carbamoyl)-4-hydroxypyrimidine-2-carboxamido)propanoic acid] showed an IC50 of 0.7 nM.

In turn, `CC(CNC(=O)c1ncc(C(=O)NC(C)(C)c2ccc(-c3ccc(F)cc3)cc2)c(O)n1)C(=O)O` (single isomer, unassigned) [Example 24, (R) or (S)-3-(5-((2-(4′-fluoro-[1,1′-biphenyl]-4-yl)propan-2-yl)carbamoyl)-4-hydroxypyrimidine-2-carboxamido)-2-methylpropanoic acid] displayed an IC50 of 4.8 nM.

The compound `CC(CNC(=O)c1ncc(C(=O)NC(C)(C)c2ccc(-c3ccc(Cl)cc3)cc2)c(O)n1)C(=O)O` (single isomer, unassigned) [Example 28, (R) or (S)-3-(5-((2-(4′-chloro-[1,1′-biphenyl]-4-yl)propan-2-yl)carbamoyl)-4-hydroxypyrimidine-2-carboxamido)-2-methylpropanoic acid] came in with a concentration for half-maximal inhibition (IC50) of 5.9 nM.

The compound `COc1ccc(C(NC(=O)c2cnc(C(=O)NCCC(=O)O)nc2O)c2ccc(OC)nc2)cn1` [Example 41, 3-(5-((bis(6-methoxypyridin-3-yl)methyl)carbamoyl)-4-hydroxypyrimidine-2-carboxamido)propanoic acid] registered a concentration for half-maximal inhibition (IC50) of 0.8 nM.

The compound `CC(CNC(=O)c1ncc(C(=O)NC(C)(C)c2ccc(-c3cccnc3)cc2)c(O)n1)C(=O)O` (single isomer, unassigned) [Example 22, (R) or (S)-2-((2-carboxypropyl)carbamoyl)-6-hydroxy-5-((2-(4-(pyridin-3-yl)phenyl)propan-2-yl)carbamoyl)pyrimidin-1-ium formate] displayed an IC50 of 3 nM.

`N#Cc1ccc(C(NC(=O)c2cnc(C(=O)NC[C@@H](O)C(=O)O)nc2O)c2ccccc2)cc1` (single isomer, unassigned) [Example 8]: the IC50 turned out to be 6.8 nM.
